pEC50: −log10 of the molar value.

Our source for the EC50 values is ChEMBL document CHEMBL5537189 (J Med Chem, 2024).

In test [1] the target is T1, Retinoic acid receptor RXR-gamma (Homo sapiens, UniProt P48443).
T1 sequence (P48443 whole entry): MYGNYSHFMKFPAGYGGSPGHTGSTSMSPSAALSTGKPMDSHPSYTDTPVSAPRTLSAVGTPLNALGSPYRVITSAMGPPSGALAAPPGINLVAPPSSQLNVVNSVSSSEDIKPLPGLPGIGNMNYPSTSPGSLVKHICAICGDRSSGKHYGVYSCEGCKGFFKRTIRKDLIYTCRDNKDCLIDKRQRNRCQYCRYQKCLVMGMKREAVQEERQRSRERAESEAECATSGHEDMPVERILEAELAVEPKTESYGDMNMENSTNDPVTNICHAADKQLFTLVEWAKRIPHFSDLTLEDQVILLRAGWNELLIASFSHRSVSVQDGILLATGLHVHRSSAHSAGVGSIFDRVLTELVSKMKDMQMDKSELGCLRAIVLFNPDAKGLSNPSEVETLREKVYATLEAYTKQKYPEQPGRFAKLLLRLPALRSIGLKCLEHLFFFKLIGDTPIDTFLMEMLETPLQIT

For test [2], the target named is T2, Retinoic acid receptor RXR-alpha (Homo sapiens, UniProt P19793).
T2 sequence (P19793 whole entry): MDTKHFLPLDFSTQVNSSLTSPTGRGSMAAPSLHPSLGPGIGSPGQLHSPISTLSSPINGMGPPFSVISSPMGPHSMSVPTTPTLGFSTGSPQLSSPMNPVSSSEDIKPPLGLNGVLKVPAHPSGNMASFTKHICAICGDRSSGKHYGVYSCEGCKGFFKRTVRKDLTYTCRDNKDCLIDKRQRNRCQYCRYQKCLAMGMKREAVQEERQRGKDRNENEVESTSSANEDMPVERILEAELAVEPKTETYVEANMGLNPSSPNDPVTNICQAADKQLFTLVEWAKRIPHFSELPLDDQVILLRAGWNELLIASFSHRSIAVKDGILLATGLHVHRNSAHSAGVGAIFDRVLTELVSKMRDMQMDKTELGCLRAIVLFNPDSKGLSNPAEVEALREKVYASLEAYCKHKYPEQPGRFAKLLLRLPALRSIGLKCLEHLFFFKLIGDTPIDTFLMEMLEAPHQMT

The target of test [3] is T3, Retinoic acid receptor RXR-beta (Homo sapiens, UniProt P28702).
T3 sequence (P28702 whole entry): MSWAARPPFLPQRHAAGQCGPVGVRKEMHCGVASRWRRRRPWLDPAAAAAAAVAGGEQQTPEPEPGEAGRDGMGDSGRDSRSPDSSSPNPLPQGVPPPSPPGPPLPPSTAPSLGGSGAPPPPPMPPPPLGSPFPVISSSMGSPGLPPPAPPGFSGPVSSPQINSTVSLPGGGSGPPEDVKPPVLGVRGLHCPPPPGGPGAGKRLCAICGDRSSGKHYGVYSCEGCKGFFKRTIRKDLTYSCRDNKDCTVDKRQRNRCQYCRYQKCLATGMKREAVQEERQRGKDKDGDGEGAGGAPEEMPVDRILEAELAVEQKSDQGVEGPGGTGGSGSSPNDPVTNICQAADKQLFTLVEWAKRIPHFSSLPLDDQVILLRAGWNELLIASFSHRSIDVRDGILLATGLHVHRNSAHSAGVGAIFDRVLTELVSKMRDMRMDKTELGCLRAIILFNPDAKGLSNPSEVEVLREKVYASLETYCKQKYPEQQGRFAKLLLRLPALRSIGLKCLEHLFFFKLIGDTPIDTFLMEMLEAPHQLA
Description: Partial agonist activity at recombinant human RXR beta LBD (298 to 533 residues) expressed in Escherichia coli Rosetta incubated for 16 hrs by Gal4-hybrid reporter gene based Dual-glo luciferase assay

In test [4] the target is T3, Retinoic acid receptor RXR-beta. As to the kind of experiment: Partial agonist activity at full length human RXR beta transfected in HEK293T cells assessed as DR1 activation incubated for 16 hrs by Dual-glo luciferase assay. Format: cell-based.

Molecule `CN(c1ccc(Cl)c(Cl)c1)c1cc(Cl)nc(OCCC(=O)O)n1` gave a pEC50 in test [1] of 5.22.
In test [2], `Cc1ccc2c(c1)N(c1cc(Cl)nc(OCCC(=O)O)n1)CCC2` had a pEC50 of 7.42.
Turning to `CN(c1ccccc1)c1cc(Cl)nc(OCCC(=O)O)n1`, the values for the negative logarithm of the EC50 (pEC50) in test [1] and in test [2] were 4.51 and 5.38, respectively.
In test [1], `CC1CCN(c2cc(Cl)nc(OCCC(=O)O)n2)c2cc(Cl)ccc21` (stereo unspecified) showed a pEC50 of 7.00.
As for `CN(c1cc(Cl)nc(OCCC(=O)O)n1)c1cccc2c1CCC2`, in test [1], the pEC50 was 5.92.
Take `CC1(C)CCN(c2cc(Cl)nc(OCCC(=O)O)n2)c2ccccc21`: the results for the negative logarithm of the EC50 (pEC50) in test [1] and in test [2] were 7.96 and 8.05, respectively.
On to `Cc1cccc(N(C)c2cc(Cl)nc(OCCC(=O)O)n2)c1`, for which the negative-log EC50 (pEC50) was 5.59 in test [1] and 6.40 in test [2].
For the molecule `Cc1cccc2c1CCCN2c1cc(Cl)nc(OCCC(=O)O)n1`, the negative logarithm of the EC50 (pEC50) in test [1] is 6.32; in test [2], 7.05.
Molecule `CN(c1cccc(C(F)(F)F)c1)c1cc(Cl)nc(OCCC(=O)O)n1` gave a pEC50 in test [1] of 5.57.
Same read-out and setting: as for `CN(c1cccc(Br)c1)c1cc(Cl)nc(OCCC(=O)O)n1`, the figure is 5.74.
`CC1CCN(c2cc(Cl)nc(OCCC(=O)O)n2)c2ccccc21` (stereo unspecified): the results for the negative logarithm of the EC50 (pEC50) in test [1], in test [3] and in test [2] were 7.30, 7.00 and 8.15, respectively.
As for `CN(c1cc(Cl)cc(Cl)c1)c1cc(Cl)nc(OCCC(=O)O)n1`, in test [2], the pEC50 is 6.59.
Take `CN(c1cc(Cl)nc(OCCC(=O)O)n1)c1cccc(Cl)c1Cl`: the figures for the pEC50 in test [1] and in test [2] were 4.85 and 5.49, respectively.
As for `Cc1ccc2c(c1)N(c1cc(Cl)nc(OCCC(=O)O)n1)CCC2C` (stereo unspecified), the negative logarithm of the EC50 (pEC50) was 7.22 in test [1], 7.47 in test [3] and 7.40 in test [2].
`O=C(O)CCOc1nc(Cl)cc(N2CCCc3ccccc32)n1`: the results for the pEC50 in test [1] and in test [2] were 6.17 and 6.96, respectively.
`CC1CCc2ccccc2N1c1cc(Cl)nc(OCCC(=O)O)n1` (stereo unspecified): the EC50 entry in test [4] is given as “Not Active”.
`Cc1cc(C)cc(N(C)c2cc(Cl)nc(OCCC(=O)O)n2)c1`: in test [1], the pEC50 was 6.80.
As for `O=C(O)CCOc1nc(Cl)cc(N2CCCc3ccc(Cl)cc32)n1`, the pEC50 in test [1] is 6.85; in test [2] it was 7.72.
On to `CN(c1cccc(Cl)c1)c1cc(Cl)nc(OCCC(=O)O)n1`, for which the pEC50 in test [1] was 5.62; in test [2] it was 6.25.
In test [2], `CN(c1cc(C(F)(F)F)cc(C(F)(F)F)c1)c1cc(Cl)nc(OCCC(=O)O)n1` showed a negative-log EC50 (pEC50) of 6.82.
With `CC1Cc2ccccc2N(c2cc(Cl)nc(OCCC(=O)O)n2)C1` (stereo unspecified), the pEC50 in test [1] is 6.66; in test [3] it was 7.47; in test [2], 7.54.
Molecule `Cc1cc(C)c2c(c1)N(c1cc(Cl)nc(OCCC(=O)O)n1)CCC2` had a negative-log EC50 (pEC50) in test [1] of 7.40.
